Patent US4748161A, “Triterpenyl esters of organic acids and hypolipidemic agents composed of them” (Amano Pharmaceutical Co., Ltd., priority 1984, dated 1988)

Test system: serum lipids and serum lipid hydroperoxide
Assay: Pharmacological test method A for anti-hyperlipidemic activity (serum lipids, 2 weeks feeding)
Type: in vivo, male Wistar strain rats
Conditions: for AI [(TC - HDL-C)/(HDL-C)] / HDL-C in serum / LPO in serum / PL in serum / TC in serum / TG in serum: 1% in hyperlipidemic diet, 2 weeks; for AI % of diff. / AI Diff. / HDL-C % of diff. / HDL-C Diff. / LPO % of diff. / LPO Diff. / PL % of diff. / PL Diff. / TC % of diff. / TC Diff. / TG % of diff. / TG Diff.: versus control group
Protocol: Male Wistar strain rats (100±lg, each 10 rats were formed into a group) were used as test animals. Diet for the control group was prepared by thorough mixing of 20% casein, 62.5% glucose, 10% hydrogenated coconut oil, 2% agar powder, 4% vitamin-containing salt mixture, 1% cholesterol, and 0.5% cholic acid (this composition is described by Fukushima et al, in "Yakugaku Zassi", 89, No. 6, pp. 857-862 (1962)). Diet for the test groups was prepared by good mixing of 1% each of cycloartenol, 24-methylenecycloartanol, and cyclobranol with the control group's diet. Each rat was kept in a cage at a constant temperature of 23±1° C. and a constant R.H. of 55±5% for 2 weeks, during which 10 g/day of the prescribed was given. Finally the rats were fasted from food except water for 16 hours (from 4 p.m. of the 14th test day to 8 a.m. of the 15th test day), and under anesthesia with pentbarbital sodium (tradename: Nembutal), blood was taken from each rat through the descending abdominal arota. Then, TC, HDL-C, TG, PL, and LPO in the serum were measured in the manner that will be described below.
A TC kit-K (supplied by Nippon Shoji Kaisha, Ltd.) was used. The principle of this determination is as follows: The ester of cholesterol in the serum is hydrolyzed with cholesterol-ester hydrolase into free cholesterol and fatty acids. All the free cholesterol is oxidized with cholesterol oxydase to form Δ^4 -cholestenone and hydrogen peroxide. Phenol and 4-aminoantipyrin are oxidatively condensed together by the formed hydrogen peroxide and peroxydase. The produced red quinone coloring matter is measured by colorimetry for absorbance at 500 nm using a spectrophotometer, thereby determining the TC:
The color-developing liquid (3.0 ml) is well mixed with the sample serum (0.02 ml). The mixture once heated at 37° C. for 15 minutes, is measured for absorbance at 500 nm with a spectrophotometer. The found absorbance is denoted by EA. On the other hand, the color-developing liquid (3.0 ml) is well mixed with the standard solution. The mixture is treated and measured for absorbance at 500 nm in the same manner as the above. This found absorbance is denoted by ES. Both EA and ES are determined with reference to the value of the blank test conducted using the color-developing liquid (3.0 ml) alone. [formula]
An HDL-C kit-N (supplied by Nippon Shoji Kaisha, Ltd.) was used. […] (VLDL) and lo density lipoprotein (LDL) in the serum is precipitated by the action of heparin. The precipitate is separated by centrifugation. High density lipoprotein (HDL) is dissolved in the separated supernatant. Esters of cholesterol in this fraction is hydrolyzed with cholesterol-ester hydrolase into free cholesterol and fatty acids. All the free cholesterol is oxidized with cholesterol oxydase to form Δ^4 -cholestenone and hydrogen peroxide. Phenol and 4-aminoantipyrine are oxidatively condensed together by the formed hydrogen peroxide and peroxydase. The produced red quinone coloring matter is measured by colorimetry for absorbance at 500 nm using a spectrophotometer, thereby determining the HDL-C.
A PL kit-K (supplied by Nippon Shoji Kaisha, Ltd.) was used for the determination. Lecithin, sphingomyelin, and lysolecithin are decomposed by phospholipase D into choline and phosphatidic acid, N-acylsphingosyl phosphate, or lysophosphatidic acid, respectively. The resulting choline is quantitatively decomposed by choline oxydase into hydrogen peroxide and betaine. With this hydrogen peroxide, and aid of peroxydase, phenol and 4-aminoantipyrin are condensed into red quinone pigment, then the absorbance at 500 nm of which is measured with a spectrophotometer, thereby determining the PL.
Serum TG level was determined by means of a triglyceride test kit (supplied by Wako Pure Chemical Industries, Ltd.) in which acetylacetone is used for a reagent, in the following manner: Serum proteins are precipitated, when isopropyl alcohol and the sample serum are mixed. […]

Row | SMILES | AI [(TC - HDL-C)/(HDL-C)] | HDL-C in serum | LPO in serum | PL in serum | TC in serum | TG in serum | AI % of diff. | AI Diff. | HDL-C % of diff. | HDL-C Diff. | LPO % of diff. | LPO Diff. | PL % of diff. | PL Diff. | TC % of diff. | TC Diff. | TG % of diff. | TG Diff.
1 | CC(C)=C(C)CCC(C)C1CCC2(C)C3CCC4C(C)(C)C(OC(=O)c5ccccc5O)CCC45CC35CCC12C (stereo not shown) [Example 41, cyclobranyl-o-hydroxybenzoate] | 0.890 | 92.9 mg/dL | 2.01 nmol/mL | 156.7 mg/dL | 175.6 mg/dL | 41.5 mg/dL | -47.1% | -0.794 | +14.8% | +12.0 mg/dl | -13.0% | -0.30 nmol/mL | -12.8% | -23.0 mg/dL | 19.1% | -41.5 mg/dL | -3.0% | -1.3 mg/dL
2 | C=C(CCC(C)C1CCC2(C)C3CCC4C(C)(C)C(OC(=O)c5cccc(N)c5)CCC45CC35CCC12C)C(C)C (stereo not shown) [Example 100, 24-Methylenecyloartanyl ester of m-aminobenzoic acid] | 0.766 | 90.1 mg/dL | 1.68 nmol/mL | 155.6 mg/dL | 159.1 mg/dL | 34.3 mg/dL | -37.3% | -0.456 | +4.2% | +3.6 mg/dl | -25.2% | -0.56 nmol/mL | -10.2% | -17.6 mg/dL | -17.2% | -33.1 mg/dL | -5.5% | -2.0 mg/dL
3 | C=C(CCC(C)C1CCC2(C)C3CCC4C(C)(C)C(OC(=O)c5ccc(O)c(OC)c5)CCC45CC35CCC12C)C(C)C (stereo not shown) [Example 86, 24-Methylenecycloartanyl ester of 4-hydroxy-3-methoxybenzoic acid] | 0.802 | 91.9 mg/dL | 2.06 nmol/mL | 163.2 mg/dL | 165.6 mg/dL | 33.1 mg/dL | -20.0% | -0.200 | -4.5% | -4.3 mg/dL | -11.6% | -0.27 nmol/mL | -9.8% | -17.7 mg/dL | -14.0% | -27.0 mg/dL | -0.3% | -0.1 mg/dL
4 | C=C(CCC(C)C1CCC2(C)C3CCC4C(C)(C)C(OC(=O)C=Cc5ccc(O)c(OC)c5)CCC45CC35CCC12C)C(C)C (stereo not shown) [Example 100-3, 24-methylenecycloartanyl-4-hydroxy-3-methoxycinnamate] | 1.393 | 73.8 mg/dL | 1.89 nmol/mL | 152.9 mg/dL | 176.6 mg/dL | 35.1 mg/dL | -8.2% | -0.124 | -9.4% | -7.7 mg/dL | -16.7% | -0.38 nmol/mL | -11.9% | -20.7 mg/dL | -13.9% | -28.5 mg/dL | +2.3% | +0.8 mg/dl
5 | C=C(CCC(C)C1CCC2(C)C3CCC4C(C)(C)C(OC(=O)C=Cc5cccc(N)c5)CCC45CC35CCC12C)C(C)C (stereo not shown) [Example 112, 24-methylenecycloartanyl ester of m-aminocinnamic acid] | 3.624 | 46.8 mg/dL | 2.16 nmol/mL | 150.4 mg/dL | 216.4 mg/dL | 28.5 mg/dL | -53.8% | -4.216 | +26.8% | +9.9 mg/dl | -22.9% | -0.64 nmol/mL | – | -15.2 mg/dL | -33.7% | -109.8 mg/dL | -16.2% | -5.5 mg/dL
6 | C=C(CCC(C)C1CCC2(C)C3CCC4C(C)(C)C(OC(=O)C=Cc5ccc(OC(C)=O)c(OCC)c5)CCC45CC35CCC12C)C(C)C (stereo not shown) [Example 72, 24-methylenecycloartanyl-4-acetoxy-3-ethoxycinnamate] | 1.091 | 89.2 mg/dL | 2.07 nmol/mL | 160.3 mg/dL | 186.5 mg/dL | 41.8 mg/dL | -35.2% | -0.593 | +10.2% | +8.3 mg/dl | -10.4% | -0.24 nmol/mL | -10.8% | -19.4 mg/dL | -14.1% | -30.6 mg/dL | -2.4% | -1.0 mg/dL
7 | CCOc1cc(C(=O)OC2CCC34CC35CCC3(C)C(C(C)CCC(C)=C(C)C)CCC3(C)C5CCC4C2(C)C)ccc1O (stereo not shown) [Example 62, cyclobranyl-3-ethoxy-4-hydroxybenzoate] | 0.474 | 108.2 mg/dL | 1.94 nmol/mL | 156.5 mg/dL | 159.5 mg/dL | 32.0 mg/dL | -52.7% | -0.528 | +12.5% | +12.0 mg/dl | -16.8% | -0.39 nmol/mL | -13.5% | -24.4 mg/dL | 17.2% | -33.1 mg/dL | -3.6% | -1.2 mg/dL
8 | CC(C)=CCCC(C)C1CCC2(C)C3CCC4C(C)(C)C(OC(=O)c5cccc(N)c5)CCC45CC35CCC12C (stereo not shown) [Example 23, cycloartenyl-m-aminobenzoate] | 1.506 | 58.9 mg/dL | 2.06 nmol/mL | 133.1 mg/dL | 147.6 mg/dL | 20.2 mg/dL | -18.5% | -0.341 | +0.3% | +0.2 mg/dl | -12.0% | -0.28 nmol/mL | -10.3% | -15.3 mg/dL | -11.7% | -19.5 mg/dL | -18.5% | -4.6 mg/dL
9 | CC(C)=C(C)CCC(C)C1CCC2(C)C3CCC4C(C)(C)C(OC(=O)c5ccc(N)cc5)CCC45CC35CCC12C (stereo not shown) [Example 43, cyclobranyl-p-aminobenzoate] | 0.713 | 91.9 mg/dL | 1.54 nmol/mL | 146.0 mg/dL | 157.4 mg/dL | 33.3 mg/dL | -41.7% | -0.509 | +6.2% | +5.4 mg/dl | -31.3% | -0.70 nmol/mL | -15.4% | – | -18.1% | -34.8 mg/dL | -8.2% | -3.0 mg/dL
